Experiment: 6-week randomized, double blind, active and placebo-controlled study in adult subjects with major depressive disorder: body weight
Format: in vivo, Humans
Procedure: A 6-week randomized, double blind, parallel group, active and placebo-controlled study was carried out to assess the efficacy of R228060 in adult subjects with major depressive disorder (MDD). Body weight was monitored throughout the study.

[1] = Paroxetine (N = 117), baseline to endpoint
[2] = Paroxetine group, baseline to endpoint

Fc1ccc([C@@H]2CCNC[C@H]2COc2ccc3c(c2)OCO3)cc1 [Paroxetine, reference compound]
Subjects with weight Decrease ≥7% [1]: 0 n (%) | Subjects with weight Increase <7% [1]: 54 (46.2) n (%) | Subjects with weight Increase ≥7% [1]: 1 (0.9) n (%) | Subjects with weight No change/decrease <7% [1]: 62 (53.0) n (%) | Weight, End point, Mean (Paroxetine group, 6-week study): 83.2 kg | Weight, End point, Median (Paroxetine group, 6-week study): 79.8 kg | Mean weight gain [2]: 0.1 kg | Weight, Change from Baseline, Mean [2]: 0.1 kg | Weight, Change from Baseline, Median [2]: 0.0 kg | Mean change from baseline to endpoint in BMI (paroxetine): 0

Source: patent US12201601B2, “Treatment for obesity” (Axsome Malta Ltd., priority 2013, dated 2025)
